Laboratory results reported in US9469878B2, “Methods of treating cancer comprising targeting NQO1” (The Board of Regents of the University of Texas System, priority 2010, dated 2016).

Assays:
H2073 = test: β-lapachone lethality in NQO1 genotyped cancer cells; type: cell-based, human
Procedure: (§1) Cell lines, mostly from a 5-panel nonsmall cell lung cancer panel from the UT Southwestern SPORE, were assessed for NQO1 polymorphism status and then monitored for NQO1 enzyme assays using β-lapachone or the standard menadione substrates. Cell line responses to β-lapachone exposures (μM, 2 h) were then assessed and lethal doses causing 50% lethality with or without dicoumarol (40 μM) co-treatments were recorded. NQO1*2/*2 and *3/*3 polymorphisms were detected from NQO1 *1/*1 wild-type sequences by PCR-RFLP. Genomic DNA was extracted from the cells using Qiagen spin columns. Using previously described oligonucleotide primers, PCR products underwent gel electrophoresis. Final genotyping was determined based on the size and pattern of separated bands diagnostic for *1/*1 (wild-type), or polymorphic *2/*2 or *3/*3 NQO1 polymorphisms.

MDA-MB-231/Breast = test: as above; type: cell-based, human
Procedure: as §1

H1993 = test: as above; type: cell-based, human
Procedure: as §1

MDA-MB-468/Breast = test: as above; type: cell-based, human
Procedure: as §1

Calu-3/NSCLC = test: as above; type: cell-based, human
Procedure: as §1

H292 = test: as above; type: cell-based, human
Procedure: as §1

H322 = test: as above; type: cell-based, human
Procedure: as §1

HCC366/NSCLC = test: as above; type: cell-based, human
Procedure: as §1

HCC1171/NSCLC = test: as above; type: cell-based, human
Procedure: as §1

[1] = β-Lap pharmacokinetic (PK) analyses; type: in vivo; conditions: athymic nude mice, plasma ng/mL, organs ng/g
Source text: FIG. 27 depicts correlative studies of NQO1 expression and β-lap, a bioactivatable drug. (a) NQO1 activity assay (reported as nMoles cyt-c/min/μg protein) in paired tumor (T) and associated normal tissue (N) from human NSCLC patient samples. NQO1 activity was not detectable in normal lung tissue. (b) β-Lap pharmacokinetic (PK) analyses in athymic nude mice. Black circles denote plasma concentrations (ng/mL); other colors denote various organ/tumor concentrations (ng/g). […] (c) NQO1 expression by immunohistochemistry (IHC). Arrowhead denotes NQO1+ prostate cancer cells. Arrow denotes normal prostate gland tissue that have low, or no, detectable NQO1 protein levels.

H441 cells = test: LD50 responses of NSCLC cell lines treated with β-Lap; type: cell-based, human; conditions: NQO1 enzyme activities ≧50 units, β-Lap 2 h, 7 days later
Procedure: (§2) LD50 responses were plotted as a function of NQO1 enzymatic levels. The notations, *1/*1 and *2/*2 represent the NQO1 status of each cell line as homozygous wild type (*1/*1) or homozygous polymorphic (*2/*2) genotypes. […] In (b), Kaplan-Meier survival curve of mice bearing orthotopic lung tumors implanted with *1/*1 A549 cells. Mice were treated intravenously (5 doses every other day) with β-lap-HPβ-CD or vehicle alone (HPβ-CD).

A549 cells = test: as above; type: cell-based, human; conditions: NQO1 enzyme activities ≧50 units, β-Lap 2 h, 7 days later
Procedure: as §2

[2] = test system: MDA-MB-231 cells expressing NQO1 (231+); test: Long term survival assay; type: cell-based, human; conditions: 231-NQ+ cells
Procedure: Cells were cultured and treated as described above.
Data were expressed as relative survival (treated/control×100%).

PC-3 cells = test: Intracellular NAD+ and ATP levels; type: cell-based, human; conditions: β-lap exposure
Procedure: ATP levels were analyzed from whole-cell extracts using CellTiter-Glo Luminescent Cell Viability Assays (Promega, Madison, Wis.) following the manufacture's instructions. Data were graphed as means±SE from at least three independent experiments in triplicates.

HTB24 = test system: HTB24; set-up: LD50 β-Lap + CAT: unit not given beside the values
Procedure: (§3) Cells were cultured and treated as described above. […] Experiments were repeated at least three times, and data expressed as relative survival (treated/control×100%) means±SEM. […] The multi-target model was used to describe the shape of relative survival curves. In this model, a final slope (D0) resulting from multiple-event killing and quasithreshold (Dq) doses were used to represent the size or width of the shoulder of the curve. The extrapolation number (n) is also a measure of the width of the shoulder. The three parameters, n, Do, and Dq were related by the expression: loge n=Dq/Do.
(§4) Cells were treated with β-lap with or without dicoumarol for 2 h. […] Data were expressed as relative survival (treated/control×100%). Experiments were repeated at least three times, and data expressed as relative survival means±SEM. […] Human mammary epithelial cells were plated in 48 well dishes in growth media containing a 50:50 mixture of MGEM/DME:F12 medium supplemented with insulin, human epidermal growth factor and hydrocortisone.

H2185 = test system: H2185; set-up: LD50 β-Lap + CAT: unit not given beside the values
Procedure: as §3, §4

ZR751 = test system: ZR751; set-up: LD50 β-Lap + CAT: unit not given beside the values
Procedure: as §3, §4

HCC1937 = test system: HCC1937; set-up: LD50 β-Lap + CAT: unit not given beside the values
Procedure: as §3, §4

MCF-7 = test system: MCF-7; set-up: LD50 β-Lap + CAT: unit not given beside the values
Procedure: as §3, §4

HTB122 = test system: HTB122; set-up: LD50 β-Lap + CAT: unit not given beside the values
Procedure: as §3, §4

[3] = *2/*2, 2 h, + dicoumarol (40 μM)
[4] = NQO1 genotype *2/*2, 2 h exposure
[5] = *3/*3, 2 h, + dicoumarol (40 μM)
[6] = NQO1 genotype *3/*3, 2 h exposure

SMILES: CC1(C)CCC2=C(O1)c1ccccc1C(=O)C2=O [β-Lap, 3,4-dihydro-2,2-dimethyl-2H-naphtho[1,2-b]pyran-5,6-dione]
- LD50 + DIC (H2073; H2073, *1/*1, 2 h, + dicoumarol (40 μM)): >10 µM
- β-Lap Lethality LD50 (H2073; H2073, NQO1 genotype *1/*1, 2 h exposure): 1.8 µM
- LD50 + DIC (MDA-MB-231/Breast; [3]): >10 µM
- β-Lap Lethality LD50 (MDA-MB-231/Breast; [4]): >10 µM
- LD50 + DIC (H1993; H1993, *1/*1, 2 h, + dicoumarol (40 μM)): >10 µM
- β-Lap Lethality LD50 (H1993; H1993, NQO1 genotype *1/*1, 2 h exposure): 1.8 µM
- LD50 + DIC (MDA-MB-468/Breast; [3]): >10 µM
- β-Lap Lethality LD50 (MDA-MB-468/Breast; [4]): >10 µM
- LD50 + DIC (Calu-3/NSCLC; [5]): 3 µM
- β-Lap Lethality LD50 (Calu-3/NSCLC; [6]): 2.4 µM
- LD50 + DIC (H292; H292, *1/*2, 2 h, + dicoumarol (40 μM)): >10 µM
- β-Lap Lethality LD50 (H292; H292, NQO1 genotype *1/*2, 2 h exposure): 1.8 µM
- LD50 + DIC (H322; H322, *1/*1, 2 h, + dicoumarol (40 μM)): >20 µM
- β-Lap Lethality LD50 (H322; H322, NQO1 genotype *1/*1, 2 h exposure): 5.7 µM
- LD50 + DIC (HCC366/NSCLC; [3]): >10 µM
- β-Lap Lethality LD50 (HCC366/NSCLC; [4]): >10 µM
- LD50 + DIC (HCC1171/NSCLC; [5]): 2 µM
- β-Lap Lethality LD50 (HCC1171/NSCLC; [6]): 3 µM
- Organ/tumor concentrations [1]: elevated levels of the drug in lung
- LD50 (H441 cells): 1.5 µM
- LD50 (A549 cells): 2.5 µM
- Lethal dose ([2]; 2 h): > 2 µM
- Sublethal dose ([2]; 2 h): 1 µM
- LD70 dose ([2]; 2 h treatment): ~2 µM
- Time to exhaustion of NAD+ and ATP levels (PC-3 cells): ≤ 120 min
- LD50 β-Lap + CAT (HTB24): 3.5
- LD50 p-Lap + DIC (HTB24; human): 6.2
- LD50 β-Lap (HTB24; human): 1.5
- LD50 β-Lap + CAT (H2185): 2.6
- LD50 p-Lap + DIC (H2185; human): 6.4
- LD50 β-Lap (H2185; human): 1.3
- LD50 β-Lap + CAT (ZR751): 3.2
- LD50 p-Lap + DIC (ZR751; human): 6.8
- LD50 β-Lap (ZR751; human): 1.4
- LD50 β-Lap + CAT (HCC1937): 3.4
- LD50 p-Lap + DIC (HCC1937; human): 5.0
- LD50 β-Lap (HCC1937; human): 2.2
- LD50 β-Lap + CAT (MCF-7): 4.8
- LD50 p-Lap + DIC (MCF-7; human): 9.0
- LD50 β-Lap (MCF-7; human): 1.7
- LD50 β-Lap + CAT (HTB122): 2.8
- LD50 p-Lap + DIC (HTB122; human): 5.5
- LD50 β-Lap (HTB122; human): 1.5
